Experimental data taken from patent publication US8609694B2, “Use of pyridin-2-yl-methylamine derivatives for the production of a medicament for the treatment of chronic pain symptoms of neuropathological or psychogenic origin” (Pierre Fabre Medicament, priority 2003, dated 2013).

What was measured:
[1] = test system: hypersensitivity (allodynia) after unilateral ligature of the infraorbital nerve (peripheral neuropathy); assay: peripheral neuropathy test in the rat (unilateral ligature of the infraorbital nerve, von Frey hair response score 0-4); assay type: in vivo; details: for amplitude of decrease of perceived pain intensity compared with baclofen: after nerve lesion of peripheral origin; for analgesic effect six days after the treatment's end (day 21): day 21, 6 days after pump explantation, same doses; for amplitude of analgesia 6 days after the treatment's end compared with amplitude at the treatment's end (day 15): day 21 versus day 15; for reduction of hypersensitivity (allodynia) to stimulation during treatment, versus saline: osmotic pump 14 days implanted 24 hours before lesion, (Ia) 0.63, (Ib) 0.16, morphine 5, baclofen 1.06 mg/rat/day, days 4-15
Description: The peripheral neuropathy test used was conducted in the rat according to a method analogous to that described by Vos in J. Neurosci. 1994, 14, 2708-2723. The product to be tested is delivered at a constant rate (0.12 ml/day) by means of an osmotic pump (Alzet, model 2ML2) for 14 days. The pumps are implanted 24 hours before lesion (unilateral ligature of the infraorbital nerve) and then explanted at the treatment's end. The pumps are implanted subcutaneously via a transverse incision made in the dorsal skin of the rat. Evaluation of the intensity of perceived pain is objectified from a series of behavioral signs observed in response to mechanical stimulation of the region lesioned by means of von Frey hairs. Stimulations are applied in order of increasing intensity. Intensity of perceived pain is evaluated from the following criteria: 0, no response by the animal; 1, detection (i.e., the rat turns its head towards the object used for stimulation); 2, withdrawal (i.e., the rat turns away or makes a withdrawal movement with its head to avoid the object used for stimulation); 3, flight or attack (i.e., the rat avoids the object by moving its body or deliberately attacks the object used for stimulation); 4, face rubbing (i.e., the rat rubs the area of stimulation three times in succession). The response level by the non-lesioned animals was 0 or 1.
The fumarate of compound (Ia) is administered at 0.63 mg/rat/day; the glycolate of compound (Ib) at 0.16 mg/rat/day; morphine hydrochloride at 5 mg/rat/day, and baclofen at 1.06 mg/rat/day. All the compounds are administered in solution in distilled water. The pumps implanted in the control animals release a 0.9% NaCl solution (saline)/rat/day; the doses refer to the weight of non-salified compound.
The effects obtained with compounds (Ia), (Ib), and the products chosen as references are represented in FIGS. 4 to 8 in the appendix. FIGS. 4 to 7 represent the analgesic effects of the various products evaluated at days 4, 6, 8, 11, and 13 of treatment and 1 day following explantation of the pump (day 15). FIG. 8 represents the analgesic effects of the various products measured at day 21, which is 6 days following the treatment's end.
The individual scores of each animal represent the average (±standard error) obtained after application of the von Frey hairs. The comparison of the results between the various groups as well as the progress of the values obtained over time are performed using an analysis of variance test (ANOVA), followed by a Dunnett's multiple comparison test.

[2] = test system: chronic hypersensitivity after spinal cord lesion (central neuropathy); assay: central neuropathy test in the rat (spinal cord lesion, vocalization threshold to von Frey hairs); assay type: in vivo; details: fumarate of (Ia) 0.63 mg/rat/day
Description: The central neuropathy test used is conducted in the rat according to a method analogous to that described by Hao and Xu in Pain 1996, 66, 279-286. The product to be tested is delivered at a constant rate by means of an osmotic pump (Alzet, model 2ML2) for 14 days. The pumps are implanted 28 days after spinal cord lesion and then explanted at the treatment's end. In this model, it was established that at 28 days post-lesion the animal is in a phase of chronic hypersensitivity which then lasts for several months. In this experiment, the hypersensitivity of the lesioned animals treated with compound (Ia) or with saline solution was measured. The pain threshold was objectified by the animal's persistent vocalization in response to a stimulation of increasing intensity in the sensitive region by means of von Frey hairs. […] The fumarate of compound (Ia) is administered at 0.63 mg/rat/day. The pumps implanted in the group of lesioned control animals release a 0.9% NaCl solution (saline)/rat/day.
The stimulation sensitivity tests by means of von Frey hairs are conducted 3 days after implantation of the osmotic pump and continue regularly for 28 days. The doses refer to the weight of non-salified compound.
The effects obtained with compound (Ia) in comparison with those of the lesioned control animals that received saline solution are represented in FIG. 3 in the appendix.

[3] = test system: hypersensitivity (allodynia) after unilateral ligature of the infraorbital nerve (peripheral neuropathy); details: rat infraorbital nerve ligature model; cited from earlier work

| SMILES | amplitude of decrease of perceived pain intensity compared with baclofen [1] | analgesic effect six days after the treatment's end (day 21) [1] | amplitude of analgesia 6 days after the treatment's end compared with amplitude at the treatment's end (day 15) [1] | reduction of hypersensitivity (allodynia) to stimulation during treatment, versus saline [1] | analgesia after treatment is interrupted (curative phase) ([2]; after day 15, 14 days following pump explantation) | symptomatic analgesia (vocalization threshold to von Frey stimulation) during treatment, versus saline ([2]; osmotic pump 14 days implanted 28 days after spinal cord lesion) | activity in the peripheral neuropathy model as established previously [3] |
| --- | --- | --- | --- | --- | --- | --- | --- |
| CNc1nc(CNCC2(F)CCN(C(=O)c3ccc(F)c(Cl)c3)CC2)ccc1C [Compound (Ib)] | at least equivalent | continued to show a significant analgesic effect | not statistically different | significantly only after day 13 | – | – | – |
| Cc1ccc(CNCC2(F)CCN(C(=O)c3ccc(F)c(Cl)c3)CC2)nc1 [Compound (Ia)] | at least equivalent | continued to show a significant analgesic effect | not statistically different | significantly after day 11 | analgesia persists and is maintained at the same level as that attained at the treatment's end | statistically significant as of the tenth day of treatment | – |
| NCC(CC(=O)O)c1ccc(Cl)cc1 (stereo not drawn) [baclofen, reference compound] | – | disappeared completely | – | significant analgesic effect after day 11 | – | – | agent with the highest activity |
| CN1CC[C@]23c4c5ccc(O)c4O[C@H]2[C@@H](O)C=C[C@H]3[C@H]1C5 [morphine, reference compound] | – | disappeared completely | – | inactive | – | – | – |
